Consider one compound from the supplement of paper PMC11061612.

In assay [1] the test system is G-292-Clone-A141B1 (Osteosarcoma). In words: combination Emax (second highest fraction inhibited in the dose matrix, 72 h); higher = more inhibition; extreme values may be limits of the assay. In a few lines: (§1)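 After 24 hours at 37°C and 5% CO2 in 1536-well plates, cells in DMEM/F12 or RPMI plus 10% FBS received two-drug dose matrices for 72 hours. Viability came from CellTiter-Glo 2.0 luminescence and was scaled as inhibition, anchored at 0 by vehicle wells and at 1 by blank wells. Combination Emax is taken as the second-highest inhibition in the matrix, and Bliss excess as the observed combination effect less EA + EB − EA·EB, with EA and EB the single-agent effects.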

Assay [2] concerns COR-L95 (Small Cell Lung Carcinoma). The description is as above. The gist of the method: as §1
Assay [3] has as its system TE-5 (Esophageal Squamous Cell Carcinoma). Described as above. In a few lines: as §1
In another assay the test system is DSH1 (Bladder Carcinoma). Described as above. The gist of the method: as §1
The subject of assay [4] is KATOIII (Gastric Carcinoma). The assay is described as above. The gist of the method: as §1
Assay [5] concerns MDA-MB-231 (Breast Carcinoma). The description is as above. In a few lines: as §1
Assay [6] deals with HT-29 (Colorectal Carcinoma). The description is as above. The gist of the method: as §1
Assay [7] deals with COR-L95 (Small Cell Lung Carcinoma). As to the kind of experiment: Bliss excess, mean over the matrix (fraction); higher = more synergy. The gist of the method:
as §1

Assay [8] relates to SW1088 (Low Grade Glioma). The assay is described as above. The gist of the method: as §1
Assay [9] deals with U-266 (Plasma Cell Myeloma). Described as above. The gist of the method:
as §1

In assay [10] the test system is NALM-6 (B-Lymphoblastic Leukemia). The description is as above. In a few lines: as §1
In assay [11] the test system is MDA-MB-157 (Breast Carcinoma). Described as above. The gist of the method: as §1
In assay [12] the test system is TE-5 (Esophageal Squamous Cell Carcinoma). Described as above. The gist of the method:
as §1

The next assay deals with ES7 (Ewing's Sarcoma). The assay is described as above. The gist of the method: as §1
Assay [13] relates to SW1783 (Low Grade Glioma). The description is as above. The gist of the method:
as §1

The subject of assay [14] is MDA-MB-231 (Breast Carcinoma). The description is as above. The gist of the method: as §1
Assay [15] concerns DB (B-Cell Non-Hodgkin's Lymphoma). The assay is described as above. In a few lines:
as §1

In assay [16] the test system is SW1990 (Pancreatic Carcinoma). The description is as above. In a few lines:
as §1

Assay [17] has as its system NCI-H1299 (Non-Small Cell Lung Carcinoma). The description is as above. In a few lines: as §1
The test system of assay [18] is HT-29 (Colorectal Carcinoma). The assay is described as above. The gist of the method:
as §1

Molecules are shown by their SMILES.

Regarding `Cc1cc2ncnn2cc1Nc1ncc2c(n1)n(C1CCOCC1)c(=O)n2C` [AZD7648] + COc1cc([C@@H]2c3cc4c(cc3[C@@H](O[C@@H]3O[C@@H]5CO[C@@H](C)O[C@H]5[C@H](O)[C@H]3O)[C@H]3COC(=O)[C@H]23)OCO4)cc(OC)c1O [Etoposide] (first compound max 10 µM, 7x7, partner max 10 µM), the “combination Emax” value in [1] is 0.321; in assay [2], 0.551; in assay [3], 0.668; in the assay on DSH1 (Bladder Carcinoma), 0.844; in assay [4], 0.368; in [5], 0.842. In addition, the “combination Emax” value in assay [6] stood at 0.711. For the same compound, the Bliss excess was 0.0315 in assay [7]; 0.032 in [8]; -0.0446 in assay [9]; 0.0869 in assay [10]; 0.0451 in [11]; -0.0089 in [12]. In addition, the Bliss excess stood at 0.052 with ES7 (Ewing's Sarcoma); 0.0614 in assay [13]; 0.0776 in assay [14]; 0.0998 in assay [15]; 0.0302 in assay [16]; 0.113 in assay [17]. Also, the Bliss excess in [18] worked out at 0.0162.
